# From patent US8912189B2, “Pyridopyrazine derivatives and their use” (Aeterna Zentaris GmbH, priority 2011, dated 2014)
row,SMILES,melting point [°C]
1,"CCNC(=O)Nc1ccc2ncc(-c3cnn(Cc4cccc(OC(F)F)c4)c3)nc2n1 [Compound 3, 1-{3-[1-(3-Difluoromethoxy-benzyl)-1H-pyrazol-4-yl]-pyrido[2,3-b]pyrazin-6-yl}-3-ethyl-urea]",198
2,"CCNC(=S)Nc1ccc2ncc(-c3cnn(Cc4ccc5c(c4)OCO5)c3)nc2n1 [Compound 5, 1-[3-(1-Benzo[1,3]dioxol-5-ylmethyl-1H-pyrazol-4-yl)-pyrido[2,3-b]pyrazin-6-yl]-3-ethyl-thiourea]",244
3,"CCNC(=O)Nc1ccc2ncc(-c3cnn(Cc4ccc(OC(F)(F)F)cc4)c3)nc2n1 [Compound 6, 1-Ethyl-3-{3-[1-(4-trifluoromethoxy-benzyl)-1H-pyrazol-4-yl]-pyrido[2,3-b]pyrazin-6-yl}-urea]",231
4,"CCNC(=O)Nc1ccc2ncc(-c3cnn(Cc4ccc(F)c(Cl)c4)c3)nc2n1 [Compound 8, 1-{3-[1-(3-Chloro-4-fluoro-benzyl)-1H-pyrazol-4-yl]-pyrido[2,3-b]pyrazin-6-yl}-3-ethyl-urea]",214 to 219
5,"CCNC(=O)Nc1ccc2ncc(-c3cnn(CCCc4ccccc4)c3)nc2n1 [Compound 9, 1-Ethyl-3-{3-[1-(3-phenyl-propyl)-1H-pyrazol-4-yl]-pyrido[2,3-b]pyrazin-6-yl}-urea]",251
6,"CCNC(=O)Nc1ccc2ncc(-c3cnn(Cc4ccc(C#N)cc4)c3)nc2n1 [Compound 10, 1-{3-[1-(4-Cyano-benzyl)-1H-pyrazol-4-yl]-pyrido[2,3-b]pyrazin-6-yl}-3-ethyl-urea]",208 to 215
7,"CCNC(=O)Nc1ccc2ncc(-c3cnn(Cc4ccc(OC(F)F)cc4)c3)nc2n1 [Compound 11, 1-{3-[1-(4-Difluoromethoxy-benzyl)-1H-pyrazol-4-yl]-pyrido[2,3-b]pyrazin-6-yl}-3-ethyl-urea]",239
8,"CCNC(=O)Nc1ccc2ncc(-c3cnn(Cc4ccc(Cl)cc4)c3)nc2n1 [Compound 18, 1-{3-[1-(4-Chloro-benzyl)-1H-pyrazol-4-yl]-pyrido[2,3-b]pyrazin-6-yl}-3-ethyl-urea]",240 to 244
9,"CCNC(=S)Nc1ccc2ncc(-c3cnn(Cc4ccc(C)cc4)c3)nc2n1 [Compound 20, 1-Ethyl-3-{3-[1-(4-methyl-benzyl)-1H-pyrazol-4-yl]-pyrido[2,3-b]pyrazin-6-yl}-thiourea]",241
10,"CCNC(=S)Nc1ccc2ncc(-c3cnn(Cc4cccc(OCc5ccccc5)c4)c3)nc2n1 [Compound 21, 1-{3-[1-(3-Benzyloxy-benzyl)-1H-pyrazol-4-yl]-pyrido[2,3-b]pyrazin-6-yl}-3-ethyl-thiourea]",203 to 205
11,"CCNC(=O)Nc1ccc2ncc(-c3cnn(Cc4ccc(Br)c(C)c4)c3)nc2n1 [Compound 22, 1-{3-[1-(4-Bromo-3-methyl-benzyl)-1H-pyrazol-4-yl]-pyrido[2,3-b]pyrazin-6-yl}-3-ethyl-urea]",250 to 252
12,"CCNC(=S)Nc1ccc2ncc(-c3cnn(Cc4cccnc4)c3)nc2n1 [Compound 24, 1-Ethyl-3-[3-(1-pyridin-3-ylmethyl-1H-pyrazol-4-yl)-pyrido[2,3-b]pyrazin-6-yl]-thiourea]",238
13,"CCNC(=S)Nc1ccc2ncc(-c3cnn(Cc4cc(C)cc(F)c4)c3)nc2n1 [Compound 25, 1-Ethyl-3-{3-[1-(3-fluoro-5-methyl-benzyl)-1H-pyrazol-4-yl]-pyrido[2,3-b]pyrazin-6-yl}-thiourea]",257 to 259
14,"CCNC(=S)Nc1ccc2ncc(-c3cnn(Cc4cccc(OC)c4OC)c3)nc2n1 [Compound 26, 1-{3-[1-(2,3-Dimethoxy-benzyl)-1H-pyrazol-4-yl]-pyrido[2,3-b]pyrazin-6-yl}-3-ethyl-thiourea]",218 to 222
15,"COCCNC(=S)Nc1ccc2ncc(-c3cnn(Cc4ccccc4)c3)nc2n1 [Compound 31, 1-[3-(1-Benzyl-1H-pyrazol-4-yl)-pyrido[2,3-b]pyrazin-6-yl]-3-(2-methoxy-ethyl)-thiourea]",219
16,"COCCNC(=S)Nc1ccc2ncc(-c3cnn(Cc4cccc(OC)c4)c3)nc2n1 [Compound 32, 1-{3-[1-(3-Methoxy-benzyl)-1H-pyrazol-4-yl]-pyrido[2,3-b]pyrazin-6-yl}-3-(2-methoxy-ethyl)-thiourea]",215
17,"COCNC(=S)Nc1ccc2ncc(-c3cnn(Cc4cccc(OC)c4)c3)nc2n1 [Compound 33, 1-{3-[1-(3-Methoxy-benzyl)-1H-pyrazol-4-yl]-pyrido[2,3-b]pyrazin-6-yl}-3-methoxymethyl-thiourea]",187
18,"COCNC(=S)Nc1ccc2ncc(-c3cnn(Cc4ccc(OC)c(OC)c4)c3)nc2n1 [Compound 35, 1-{3-[1-(3,4-Dimethoxy-benzyl)-1H-pyrazol-4-yl]-pyrido[2,3-b]pyrazin-6-yl}-3-methoxymethyl-thiourea]",188

# Results, then the compound that gave them:
row,melting point [°C],SMILES
1,219,"CCNC(=O)Nc1ccc2ncc(-c3cnn(Cc4cc(OC)c(OC)c(OC)c4)c3)nc2n1 [Compound 1, 1-Ethyl-3-{3-[1-(3,4,5-trimethoxy-benzyl)-1H-pyrazol-4-yl]-pyrido[2,3-b]pyrazin-6-yl}-urea]"
2,242,"CCNC(=O)Nc1ccc2ncc(-c3cnn(Cc4cccc(O)c4)c3)nc2n1 [Compound 4, 1-Ethyl-3-{3-[1-(3-hydroxy-benzyl)-1H-pyrazol-4-yl]-pyrido[2,3-b]pyrazin-6-yl}-urea]"
3,198,"COCCNC(=S)Nc1ccc2ncc(-c3cnn(Cc4ccc(OC)c(OC)c4)c3)nc2n1 [Compound 7, 1-{3-[1-(3,4-Dimethoxy-benzyl)-1H-pyrazol-4-yl]-pyrido[2,3-b]pyrazin-6-yl}-3-(2-methoxy-ethyl)-thiourea]"
4,208 to 210,"CCNC(=O)Nc1ccc2ncc(-c3cnn(Cc4cccc(C)c4)c3)nc2n1 [Compound 13, 1-Ethyl-3-{3-[1-(3-methyl-benzyl)-1H-pyrazol-4-yl]-pyrido[2,3-b]pyrazin-6-yl}-urea]"
5,217 to 220,"CCNC(=O)Nc1ccc2ncc(-c3cnn(Cc4ccc(C)cc4)c3)nc2n1 [Compound 15, 1-Ethyl-3-{3-[1-(4-methyl-benzyl)-1H-pyrazol-4-yl]-pyrido[2,3-b]pyrazin-6-yl}-urea]"
6,182,"CCNC(=O)Nc1ccc2ncc(-c3cnn(CCCCc4ccccc4)c3)nc2n1 [Compound 16, 1-Ethyl-3-{3-[1-(4-phenyl-butyl)-1H-pyrazol-4-yl]-pyrido[2,3-b]pyrazin-6-yl}-urea]"
7,225,"CCNC(=S)Nc1ccc2ncc(-c3cnn(Cc4cc(OC)ccc4OC)c3)nc2n1 [Compound 19, 1-{3-[1-(2,5-Dimethoxy-benzyl)-1H-pyrazol-4-yl]-pyrido[2,3-b]pyrazin-6-yl}-3-ethyl-thiourea]"
8,237,"CCNC(=S)Nc1ccc2ncc(-c3cnn(Cc4ccc(OC)cc4)c3)nc2n1 [Compound 23, 1-Ethyl-3-{3-[1-(4-methoxy-benzyl)-1H-pyrazol-4-yl]-pyrido[2,3-b]pyrazin-6-yl}-thiourea]"
9,239,"CCNC(=S)Nc1ccc2ncc(-c3cnn(Cc4cccc(O)c4)c3)nc2n1 [Compound 36, 1-Ethyl-3-{3-[1-(3-hydroxy-benzyl)-1H-pyrazol-4-yl]-pyrido[2,3-b]pyrazin-6-yl}-thiourea]"
